# Data: patent US20160083391A1, “TRICYCLIC PIPERAZINE DERIVATIVE” (Sunovion Pharmaceuticals Inc., priority 2014, published 2016)
# Tested on: PDE1
# Test: In vitro HTRF PDE1 inhibition assay
# Format: biochemical
# Settings: HTRF cGMP assay, 100 nM cyclic GMP, PDE (1A3, 1B or 1C) with calmodulin, 45 minutes at 37° C.; isoform of the tabulated values not stated
# How it was run: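 Activities are given as IC50 bands (<1, 1-10, >10 μM) derived from a 665/615 nm time-resolved FRET readout after d2-cGMP/anti-cGMP cryptate detection. Enzymes PDE1A3, 1B or 1C plus calmodulin were incubated 45 min at 37 °C with 100 nM cGMP, 1% DMSO, CaCl2/MgCl2 Tris buffer pH 7.4.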
row,IC50 [µM],Structure (SMILES)
1,1 to 10,"CC1CN(Cc2ccc(Cl)cc2)Cc2nc3c(cnn3C3CCCC3)c(=O)n21 (racemic) [Compound I-121, (±)-8-(4-Chlorobenzyl)-1-cyclopentyl-6-methyl-6,7,8,9-tetrahydropyrazino[1,2-a]pyrazolo[3,4-d]pyrimidin-4(1H)-one]"
2,> 10,"CC(C)n1ncc2c(=O)n3c(nc21)CN(Cc1cncnc1)CC3 [Compound I-190, 1-Isopropyl-8-(pyrimidin-5-ylmethyl)-6,7,8,9-tetrahydropyrazino[1,2-a]pyrazolo[3,4-d]pyrimidin-4(1H)-one]"
3,> 10,"COc1ccc(CN2CCn3c(nc4c(C5CCCC5)n[nH]c4c3=O)C2)cc1 [Compound I-123, 3-Cyclopentyl-6-(4-methoxybenzyl)-5,6,7,8-tetrahydropyrazino[1,2-a]pyrazolo[4,3-d]pyrimidin-10(1H)-one]"
4,< 1,"COc1ccc(CN2CCn3c(nn4c(C5CCCC5)nnc4c3=O)C2)cc1 [Compound I-131, 3-Cyclopentyl-7-(4-methoxybenzyl)-8,9-dihydro-6H-pyrazino[2,1-c][1,2,4]triazolo[3,4-f][1,2,4]triazin-11(7H)-one]"
5,1 to 10,"CC(C)c1nnc2c(=O)n3c(nn12)CN(Cc1ccc(Cl)cc1)CC3 [Compound I-221, 7-(4-Chlorobenzyl)-3-isopropyl-8,9-dihydro-6H-pyrazino[2,1-c][1,2,4]triazolo[3,4-f][1,2,4]triazin-11(7H)-one]"
6,1 to 10,"O=c1c2cnn(C3CCCC3)c2nc2n1CCN(c1ccccc1Cl)C2 [Compound I-87, 8-(2-Chlorophenyl)-1-cyclopentyl-6,7,8,9-tetrahydropyrazino[1,2-a]pyrazolo[3,4-d]pyrimidin-4(1H)-one]"
7,1 to 10,"CCCn1ncc2c(=O)n3c(nc21)CN(Cc1cccc(Cl)c1)CC3 [Compound I-166, 8-(3-Chlorobenzyl)-1-propyl-6,7,8,9-tetrahydropyrazino[1,2-a]pyrazolo[3,4-d]pyrimidin-4(1H)-one]"
8,> 10,"COc1ccc(CN2CCn3c(nc4c(ncn4C4CCCC4)c3=O)C2)cc1 [Compound I-125, 3-Cyclopentyl-6-(4-methoxybenzyl)-5,6,7,8-tetrahydropyrazino[1,2-a]purin-10(3H)-one]"
9,1 to 10,"COc1cccc(CN2CCn3c(nc4c(cnn4C(C)C)c3=O)C2)c1 [Compound I-79, 1-Isopropyl-8-(3-methoxybenzyl)-6,7,8,9-tetrahydropyrazino[1,2-a]pyrazolo[3,4-d]pyrimidin-4(1H)-one]"

# Further lines, the compound ahead of its results:
row,Structure (SMILES),IC50 [µM]
1,"O=c1c2c(Nc3ccccc3)n[nH]c2nc2n1CCNC2 [Compound I-16, 3-(Phenylamino)-6,7,8,9-tetrahydropyrazino[1,2-a]pyrazolo[3,4-d]pyrimidin-4(1H)-one]",> 10
2,"CCOc1cc(N2CCn3c(nn4c(C(C)C)ncc4c3=O)C2)ccc1F [Compound I-177, 7-(3-Ethoxy-4-fluorophenyl)-3-isopropyl-8,9-dihydro-6H-imidazo[5,1-f]pyrazino[2,1-c][1,2,4]triazin-11(7H)-one]",< 1
3,"CC1c2nc3c(cnn3-c3ccccc3)c(=O)n2CCN1Cc1ccccc1 (racemic) [Compound I-33, (±)-8-Benzyl-9-methyl-1-phenyl-6,7,8,9-tetrahydropyrazino[1,2-a]pyrazolo[3,4-d]pyrimidin-4(1H)-one]",> 10
4,"CC(C)c1ncc2c(=O)n3c(nn12)CN(c1ccc(Cl)cn1)CC3 [Compound I-242, 7-(5-Chloropyridin-2-yl)-3-isopropyl-8,9-dihydro-6H-imidazo[5,1-f]pyrazino[2,1-c][1,2,4]triazin-11(7H)-one]",< 1
5,"CC(C)n1ncc2c(=O)n3c(nc21)CN(C)C(Cc1ccccc1)C3 (racemic) [Compound I-110, (±)-7-Benzyl-1-isopropyl-8-methyl-6,7,8,9-tetrahydropyrazino[1,2-a]pyrazolo[3,4-d]pyrimidin-4(1H)-one]",> 10
6,"CC(C)n1ncc2c(=O)n3c(nc21)CN(c1ccc(Cl)cc1)CC3 [Compound I-91, 8-(4-Chlorophenyl)-1-isopropyl-6,7,8,9-tetrahydropyrazino[1,2-a]pyrazolo[3,4-d]pyrimidin-4(1H)-one]",< 1
